In US20200215003A1, “PARENTERAL ADMINISTRATION OF TAPENTADOL” (GRÜNENTHAL GMBH, priority 2011, published 2020):
Structures can show the parent of a compound that is named as a salt.

How the values were obtained:
[1] = test system: carrageenan induced acute inflammatory pain in rats; experiment: carrageenan induced acute inflammatory pain (paw pressure test); type: in vivo; settings: for ED50: Rattus norvegicus, 0.25 h, acute pain, 15 min p. appl.; for time at which the peak effect was reached: p. appl., timepoint of first measurement
From the text: (§1) The weight ratios of the components (a) and (b) that will lead to a supra-additive effect (synergistic effect) of the inventive pharmaceutical composition may be determined via the paw pressure test of Randall and Selitto as described in Arch. Int. Pharmacodyn., 1957, 111: 409 to 419, which is a model for inflammatory pain. The respective part of the literature is hereby incorporated by reference and forms part of the present disclosure. Accordingly, the weight ratios of the components (a) and (b) that will lead to a supra-additive effect (synergistic effect) of the inventive pharmaceutical composition were determined in a model of acute pain (A) and a model of chronic pain (B).
Acute inflammation was induced by injection of a 0.1 ml carrageenan solution (0.5% in distilled water) subcutaneously into the plantar surface of the right hind paw of the rat. The mechanical nociceptive threshold was measured using an Algesiometer (Ugo Basile, Italy). The device generates a mechanical force with a linear increase over time. The force was applied to the dorsal surface of the inflamed hind paw via a cone-shaped stylus with a rounded tip (3 mm^2). The nociceptive threshold (Tv) was defined as the force at which the rat vocalises (cut-off force 450 g). Compounds or vehicle were given 3 h after carrageenan injection. The mechanical nociceptive threshold was measured at different times after the drug or vehicle administration. The drug effects are expressed as percentages of the maximal possible effect (MPE) based on the following formula: %MPE=(Tv drug−Tv control)/(cut-off−Tv control)×100. The group size is n=12.
(§2) The analysis of the results with respect to a supra-additive effect of the inventive pharmaceutical composition comprising the components (a) and (b) was carried out via statistical comparison of the theoretical additive ED50-value with the experimentally determined ED50-value of a so-called fixed ratio combination (isobolographic analysis according to Tallarida J T, Porreca F, and Cowan A. Statistical analysis of drug-drug and site-site interactions with isobolograms. Life Sci. 1989; 45: 947-961). The interactions studies presented herein were performed using equieffective doses of the two components, calculated from the ratio of the respective ED50 values of the components if administered alone.

[2] = test system: CFA induced chronic inflammatory pain in rats; experiment: Complete Freund Adjuvant (CFA) induced chronic inflammatory pain (paw pressure test); type: in vivo; settings: for ED50: Rattus norvegicus, ip, 0.25 h, chronic pain, 15 min p. appl.; for time at which the peak effect was reached: p. appl., timepoint of first measurement
From the text: as §1
Chronic inflammation was induced by an intraplantar injection of 0.05 mL of a CFA solution (Mycobacterium tuberculosis, H37 Ra, Difco Laboratories, Detroit, Mich., U.S.A.; 1 mg/mL in mineral oil) into one hind paw. The mechanical nociceptive threshold is measured before (prevalue) and one day after CFA injection using an Algesiometer (Ugo Basile, Italy). The device generates a mechanical force with a linear increase over time. The force is applied to the dorsal surface of the inflamed rat hind paw via a cone-shaped stylus with a rounded tip (2 mm tip diameter). The nociceptive threshold is defined as the force (in grams) at which the rat vocalises (cut-off force 450 g). The mechanical nociceptive threshold is measured at different timepoints after the drug or vehicle administration. The antinociceptive and antihyperalgesic activity of the tested substance is expressed as percentages of the maximal possible effect (%MPE). The maximal possible effect is defined as the percentage of prevalue withdrawal treshold before CFA-injection. The group size is n=10.
as §2

[3] = test system: diabetic hyperalgesia in male C57/BL/6 mice; experiment: streptozotocin-induced diabetic heat hyperalgesia, hot plate 50 °C; type: in vivo
[4] = biological target: recombinantly produced μ-opioid receptor (Homo sapiens, UniProt P35372); settings: compared with morphine; cited from earlier work
Sequence of recombinantly produced μ-opioid receptor (P35372 whole entry): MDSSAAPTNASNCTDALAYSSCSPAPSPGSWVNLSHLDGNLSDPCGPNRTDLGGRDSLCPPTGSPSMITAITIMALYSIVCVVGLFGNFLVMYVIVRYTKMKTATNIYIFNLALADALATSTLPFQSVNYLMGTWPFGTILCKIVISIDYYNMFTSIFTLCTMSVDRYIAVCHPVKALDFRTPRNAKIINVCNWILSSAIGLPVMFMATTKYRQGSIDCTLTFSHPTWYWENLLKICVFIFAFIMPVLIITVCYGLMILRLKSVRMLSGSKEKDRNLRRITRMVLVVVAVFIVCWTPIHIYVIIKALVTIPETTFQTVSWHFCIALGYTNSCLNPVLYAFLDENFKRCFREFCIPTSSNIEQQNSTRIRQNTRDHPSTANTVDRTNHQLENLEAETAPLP

[5] = clinical studies, compared with morphine; cited from earlier work

Compound | ED50 ([1]; ip) [mg/kg] | time at which the peak effect was reached [1] [min] | ED50 [2] [mg/kg] | time at which the peak effect was reached [2] [min] | combined intrathecal and intracerebroventricular ED 50 compared to theoretical additive effects ([3]; FIG. 7, p <0.001) | ED-50 ([3]; combination of intrathecal and intracerebroventricular administration, threshold values after 15 minutes) | ED-50 ([3]; intracerebroventricular administration, thermal hyperalgesia threshold values after 15 minutes) | inhibition of diabetic heat hyperalgesia ([3]; intracerebroventricular, 0.1, 0.3 and 1.00 μg (FIGS. 3 and 4)) | ED-50 ([3]; intrathecal administration, thermal hyperalgesia threshold values after 15 minutes) | inhibition of diabetic heat hyperalgesia ([3]; intrathecal plus intracerebroventricular, simultaneously (FIGS. 5 and 6)) | inhibition of diabetic heat hyperalgesia ([3]; intrathecal, 0.316, 1.00 and 3.16 μg (FIGS. 1 and 2)) | ED50 ([1]; iv) [mg/kg] | affinity to the recombinantly produced μ-opioid receptor relative to morphine [4] [times less] | pain-alleviating action relative to morphine [5]
CCN(CC)CC(=O)Nc1c(C)cccc1C [Lidocaine, lidocaine hydrochloride] | 32.4 | 15 | 26.8 | 15 |  |  |  |  |  |  |  |  |  | 
CC[C@@H](c1cccc(O)c1)[C@@H](C)CN(C)C [tapentadol, (1 R,2R)-3-(3-dimethylamino-1-ethyl-2-methyl-propyl)-phenol] |  | 15 | 6.34 | 15 | synergistically better | 0.053 (0.032-0.074) mg/animal | 0.18 (0.14-0.22) mg/animal | dose-dependent inhibition | 0.42 (0.26-0.58) mg/animal | dose-dependent inhibition | dose-dependent inhibition | 1.75 | 18 | two to three times less
